In patent US20230241257A1, “BIOTIN-MODIFIED DIMER AND USE THEREOF” (THE UNIVERSITY OF TOKYO, priority 2020, published 2023):

What was measured:
[1] = test system: human stomach cancer cells (MKN-45); experiment: Experiment 5: pharmacokinetics of Cupid-scFv antibody (24 h before)+^211At-psyche-BR in MKN-45 cancer-bearing mouse models; format: in vivo, mice (BALB/cSlc nu/nu)
Protocol: The present experiment used human stomach cancer cells (MKN-45) expressing carcinoembryonic antigen (CEA). 9-week-old male immunodeficient mice (BALB/cSlc nu/nu) were used. MKN-45 cells (1×10^7/0.1 ml) were transplanted into the mice's subcutis on the right shoulder dorsal side to produce cancer-bearing mouse models. The mice were divided into four groups when the tumor volume became a predetermined size (on Day 13 after the transplantation). The Cupid-scFv antibody was administered in 100 μmol/0.1 ml via the caudal vein of each mouse. Twenty-four hours after administration of the Cupid-scFv antibody, ^211At-psyche-BR (about 0.25 MBq/100 ml) was administered via the caudal vein of each mouse. One minute, 1 hour, 6 hours, and 24 hours after administration of the ^211At-psyche-BR, the mice were euthanized by collecting whole blood from the heart of each mouse under isoflurane anesthesia, and tumor tissues and normal tissues/organs were then excised. Normal tissues/organs: skin (lower right limb), muscle (right gastrocnemius muscle), heart, lung, spleen, pancreas, white fat (upper portion of right side testis), testis (both sides), stomach, stomach contents, small intestine (including contents), large intestine (including contents), liver, brown fat (interscapular), submandibular gland, thyroid gland (together with trachea), bone (right femur), cerebrum, eyeballs (both sides), bladder, and urine; the remaining residues were divided into three equal parts, and the three equal parts were defined to be residue-1, residue-2, and residue-3. After that, the weights of blood, plasma, urine, tumor, and normal tissues/organs were measured, and the radioactivity thereof was then measured using a γ counter. The amounts of the ^211At-psyche-BR (radioactivity) accumulated in the blood, plasma, urine, tumor, and normal tissues/organs were calculated. That is to say, the rates (% ID/g) of the ^211At-psyche-BR accumulated per unit weight (g) of the blood, plasma, urine, tumor, and normal tissues/organs, in the administered ^211At-psyche-BR were shown. Regarding accumulation of the ^211At-psyche-BR in the thyroid gland, since the weight of the thyroid gland could not be precisely measured, it was shown that the rate (% ID) of the ^211At-psyche-BR accumulated in the thyroid gland in the administered ^211At-psyche-BR.

[2] = test system: human stomach cancer cells (MKN-45); experiment: Experiment 2: pharmacokinetics of Cupid-scFv antibody (24 h before)+^211At-psyche-B in MKN-45 cancer-bearing mouse models; format: in vivo, mice (BALB/cSlc nu/nu)
Protocol: The present experiment used highly CEA-expressing human stomach cancer cells (MKN-45). 9-week-old male immunodeficient mice (BALB/cSlc nu/nu) were used. MKN-45 cells (1×10^7/0.1 ml) were transplanted into the mice's subcutis on the right shoulder dorsal side to produce MKN-45 cancer-bearing mouse models. The mice were divided into four groups when the tumor volume became a predetermined size (on Day 13 after the transplantation). A Cupid-scFv antibody was administered in 100 μmol/0.1 ml via the caudal vein of each mouse. Twenty-four hours after administration of the Cupid-scFv antibody, ^211At-psyche-B (about 0.25 MBq/100 ml) was administered via the caudal vein of the mice. One minute, 1 hour, 6 hours, and 24 hours after administration of the ^211At-psyche-B, the mice were euthanized by collecting whole blood from the heart of each mouse under isoflurane anesthesia, and tumor tissues and normal tissues/organs were then excised. Normal tissues/organs: skin (lower right limb), muscle (right gastrocnemius muscle), heart, lung, spleen, pancreas, white fat (upper portion of right side testis), testis (right side), stomach (without contents), small intestine, large intestine, liver, brown fat, submandibular gland, thyroid gland (together with trachea), bone (right femur), cerebrum, eyeballs (both sides), bladder, and urine; the remaining residues were divided into three equal parts, and the three equal parts were defined to be residue-1, residue-2, and residue-3. After that, the weights of blood, plasma, urine, tumor, and normal tissues/organs were measured, and the radioactivity thereof was then measured using a γ counter. The amounts of the ^211At-psyche-B (radioactivity) accumulated in the blood, plasma, urine, tumor, and normal tissues/organs were calculated. That is to say, the rates (% ID/g) of the ^211At-psyche-B accumulated per unit weight (g) of the blood, plasma, urine, tumor, and normal tissues/organs, in the administered ^211At-psyche-B, were shown. Regarding accumulation of the ^211At-psyche-B in the thyroid gland, since the weight of the thyroid gland could not be precisely measured, it was shown that the rate (% ID) of the ^211At-psyche-B accumulated in the thyroid gland in the administered ^211At-psyche-B.

For `N=C1N[C@H]2[C@H](CS[C@H]2CCCCNC(=O)CCCCCC(=O)Nc2cc(NC(=O)CCCCCC(=O)NCCCC[C@@H]3SC[C@@H]4NC(=N)N[C@@H]43)cc(C(=O)NCCOCCOCCNC(=O)c3cccc([211At])c3)c2)N1` [^211At-psyche-BR], the “Accumulation in the kidney” value ([1]; after 1 minute) was 28.6±1.3 % ID/g, the “Accumulation in the liver” value ([1]; after 1 minute) was 13.3±2.2 % ID/g and the “Accumulation in the lung” value ([1]; after 1 minute) was 14.4±1.6 % ID/g. For the same compound, the “Accumulation in the spleen” value ([1]; after 1 minute) was 4.7±0.4 % ID/g, the “Accumulation in the tumor” value ([1]; after 1 minute) was 0.6±0.1 % ID/g and the “Clearance from the blood” value ([1]; after 1 minute) was 46.9±1.1 % ID/g. For the same compound, the tumor-to-blood ratio ([1]; after 1 minute) was 0.01±0.00, the tumor-to-muscle ratio ([1]; after 1 minute) was 1.22±0.05 and the “Accumulation in the kidney” value ([1]; after 1 hour) was 17.1±1.4 % ID/g. For the same compound, the “Accumulation in the liver” value ([1]; after 1 hour) was 11.4±0.7 % ID/g, the “Accumulation in the lung” value ([1]; after 1 hour) was 13.2±2.2 % ID/g and the “Accumulation in the spleen” value ([1]; after 1 hour) was 7.1±0.2 % ID/g. The “Accumulation in the tumor” value ([1]; after 1 hour) was 3.1±0.7 % ID/g, the “Clearance from the blood” value ([1]; after 1 hour) was 39.5±5.2 % ID/g and the tumor-to-blood ratio ([1]; after 1 hour) was 0.08±0.02. The tumor-to-muscle ratio ([1]; after 1 hour) was 5.11±1.81, the “Accumulation in the kidney” value ([1]; after 6 hours) was 9.5±0.2 % ID/g and the “Accumulation in the liver” value ([1]; after 6 hours) was 12.8±0.2 % ID/g. For the same compound, the “Accumulation in the lung” value ([1]; after 6 hours) was 9.1±1.0 % ID/g, the “Accumulation in the spleen” value ([1]; after 6 hours) was 8.4±1.0 % ID/g and the “Accumulation in the tumor” value ([1]; after 6 hours) was 9.3±0.6 % ID/g. For the same compound, the “Clearance from the blood” value ([1]; after 6 hours) was 25.3±1.0 % ID/g, the tumor-to-blood ratio ([1]; after 6 hours) was 0.7±0.02 and the tumor-to-muscle ratio ([1]; after 6 hours) was 12.80±1.86. For the same compound, the “Accumulation in the thyroid gland” value ([1]; after 24 h) was 0.15±0.05 % ID, the “Accumulation in the kidney” value ([1]; after 24 hours) was 5.4±0.5% and the “Accumulation in the liver” value ([1]; after 24 hours) was 7.8±0.9%. For the same compound, the “Accumulation in the lung” value ([1]; after 24 hours) was 5.3±0.1%, the “Accumulation in the spleen” value ([1]; after 24 hours) was 5.5±1.1% and the “Accumulation in the tumor” value ([1]; after 24 hours) was 18.4±2.5%. For the same compound, the “Clearance from the blood” value ([1]; after 24 hours) was 8.3±0.5 % ID/g, the “amount administered excreted (blood)” value ([1]; after 24 hours) was “about 92%” and the tumor-to-blood ratio ([1]; after 24 hours) was 2.23±0.41. For the same compound, the tumor-to-muscle ratio ([1]; after 24 hours) was 25.07±3.68.

In the case of `N=C1N[C@H]2[C@H](CS[C@H]2CCCCC(=O)NCCCCCC(=O)Nc2cc(NC(=O)CCCCCNC(=O)CCCC[C@@H]3SC[C@@H]4NC(=N)N[C@@H]43)cc(C(=O)NCCOCCOCCNC(=O)c3cccc([211At])c3)c2)N1` [^211At-psyche-B], the “Accumulation in the kidney” value ([2]; after 1 minute) is reported as 29.3±1.5 % ID/g, the “Accumulation in the liver” value ([2]; after 1 minute) is reported as 17.4±2.3 % ID/g and the “Accumulation in the lung” value ([2]; after 1 minute) is reported as 15.9±1.7 % ID/g. The “Accumulation in the spleen” value ([2]; after 1 minute) was 4.9±1.7 % ID/g, the “Accumulation in the tumor” value ([2]; after 1 minute) was 0.6±0.1 % ID/g and the “Clearance from the blood” value ([2]; after 1 minute) was 46.4±1.4 % ID/g. For the same compound, the tumor-to-blood ratio ([2]; after 1 minute) was 0.01±0.00, the tumor-to-muscle ratio ([2]; after 1 minute) was 1.5±0.3 and the “Accumulation in the kidney” value ([2]; after 1 hour) was 14.2±1.3 % ID/g. The “Accumulation in the liver” value ([2]; after 1 hour) was 13.6±1.4 % ID/g, the “Accumulation in the lung” value ([2]; after 1 hour) was 14.7±3.6 % ID/g and the “Accumulation in the spleen” value ([2]; after 1 hour) was 7.9±1.1 % ID/g. For the same compound, the “Accumulation in the tumor” value ([2]; after 1 hour) was 3.2±0.4 % ID/g, the “Clearance from the blood” value ([2]; after 1 hour) was 40.6±3.2 % ID/g and the tumor-to-blood ratio ([2]; after 1 hour) was 0.08±0.01. The tumor-to-muscle ratio ([2]; after 1 hour) was 5.2±1.0, the “Accumulation in the kidney” value ([2]; after 6 hours) was 9.8±0.7 % ID/g and the “Accumulation in the liver” value ([2]; after 6 hours) was 16.0±1.4 % ID/g. For the same compound, the “Accumulation in the lung” value ([2]; after 6 hours) was 11.2±0.9 % ID/g, the “Accumulation in the spleen” value ([2]; after 6 hours) was 10.1±0.3 % ID/g and the “Accumulation in the tumor” value ([2]; after 6 hours) was 11.8±1.5 % ID/g. For the same compound, the “Clearance from the blood” value ([2]; after 6 hours) was 29.4±0.9 % ID/g, the tumor-to-blood ratio ([2]; after 6 hours) was 0.40±0.05 and the tumor-to-muscle ratio ([2]; after 6 hours) was 14.0±0.9. For the same compound, the “Accumulation in the thyroid gland” value ([2]; after 24 h) was 0.16±0.06 % ID, the “Accumulation in the kidney” value ([2]; after 24 hours) was 4.7±0.8% and the “Accumulation in the liver” value ([2]; after 24 hours) was 15.5±0.1%. For the same compound, the “Accumulation in the lung” value ([2]; after 24 hours) was 4.2±0.5%, the “Accumulation in the spleen” value ([2]; after 24 hours) was 9.6±2.4% and the “Accumulation in the tumor” value ([2]; after 24 hours) was 16.3±4.1%. For the same compound, the “Clearance from the blood” value ([2]; after 24 hours) was 6.2±1.3 % ID/g, the “administered amount excreted (blood)” value ([2]; after 24 hours) was 94% and the tumor-to-blood ratio ([2]; after 24 hours) was 2.63±0.10. The tumor-to-muscle ratio ([2]; after 24 hours) was 26.5±4.6.
